# Measurements taken from patent US20080114007A1 (priority 2006, published 2008).
# Biological target: CSF-1R (Homo sapiens, UniProt P07333)
# Experiment: Peptide (non-phosphorylated) assay, fluorescence polarization competition immunoassay
# Format: biochemical
# Settings: 0.7 nM CSF-1R, 308 μM SYEGNSYTFIDPTQ peptide, 1 mM ATP, 80 min; mean of at least three determinations; read-out: c-fms Peptide IC50
# How it was run: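 Read-out is fluorescence polarization: after EDTA quench, anti-phosphotyrosine antibody plus PTK green tracer compete with the phosphorylated peptide for 30 min. The CSF-1R reaction itself ran 80 min at room temperature after ATP addition. DMSO (4%) wells served as controls, positive controls pre-treated with EDTA.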
# CSF-1R, sequence (P07333 20-972): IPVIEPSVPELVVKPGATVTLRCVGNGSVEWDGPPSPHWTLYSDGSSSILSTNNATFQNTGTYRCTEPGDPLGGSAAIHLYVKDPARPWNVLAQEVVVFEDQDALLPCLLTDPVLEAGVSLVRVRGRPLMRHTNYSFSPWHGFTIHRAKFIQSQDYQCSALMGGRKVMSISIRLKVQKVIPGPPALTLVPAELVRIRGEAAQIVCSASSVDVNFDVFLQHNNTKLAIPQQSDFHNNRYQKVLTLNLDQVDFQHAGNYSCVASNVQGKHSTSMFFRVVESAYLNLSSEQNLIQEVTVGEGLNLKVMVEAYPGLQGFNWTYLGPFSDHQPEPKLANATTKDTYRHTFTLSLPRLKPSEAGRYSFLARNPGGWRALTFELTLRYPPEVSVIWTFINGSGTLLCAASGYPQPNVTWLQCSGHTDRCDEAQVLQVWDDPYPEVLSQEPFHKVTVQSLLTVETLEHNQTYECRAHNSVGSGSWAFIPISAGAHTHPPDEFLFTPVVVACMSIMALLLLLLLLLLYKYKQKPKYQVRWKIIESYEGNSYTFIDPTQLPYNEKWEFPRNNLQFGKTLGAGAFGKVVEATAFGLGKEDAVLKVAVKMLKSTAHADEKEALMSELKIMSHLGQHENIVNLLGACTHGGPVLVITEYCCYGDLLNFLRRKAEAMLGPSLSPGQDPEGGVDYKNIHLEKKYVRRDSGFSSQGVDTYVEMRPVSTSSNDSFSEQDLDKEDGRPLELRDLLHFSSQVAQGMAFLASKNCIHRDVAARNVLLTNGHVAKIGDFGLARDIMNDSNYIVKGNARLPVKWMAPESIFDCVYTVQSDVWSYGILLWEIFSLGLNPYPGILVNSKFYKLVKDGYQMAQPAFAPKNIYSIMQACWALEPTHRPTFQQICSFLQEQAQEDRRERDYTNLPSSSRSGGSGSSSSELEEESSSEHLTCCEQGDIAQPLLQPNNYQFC
row,SMILES,IC50 [nM]
1,"CONC(=O)c1cn(-c2ccc3c(c2)CCC3)c2nc(Nc3ccc(CCc4n[nH]c(C)n4)cc3)ncc2c1=O [Cpd 172, 8-indan-5-yl-2-{4-[2-(5-methyl-1H-[1,2,4]triazol-3-yl)-ethyl]-phenylamino}-5-oxo-5,8-dihydro-pyrido[2,3-d]pyrimidine-6-carboxylic acid methoxy-amide]",2.3
2,"CONC(=O)c1cn(-c2ccc3c(c2)CCC3)c2nc(Nc3ccc(Cc4ccncc4)cc3)ncc2c1=O [Cpd 173, 8-indan-5-yl-5-oxo-2-(4-pyridin-4-ylmethyl-phenylamino)-5,8-dihydro-pyrido[2,3-d]pyrimidine-6-carboxylic acid methoxy-amide]",0.77
3,"CONC(=O)c1cn(-c2ccc3c(c2)CCC3)c2nc(Nc3cccc(-n4cncn4)c3)ncc2c1=O [Cpd 174, 8-indan-5-yl-5-oxo-2-(3-[1,2,4]triazol-1-yl-phenylamino)-5,8-dihydro-pyrido[2,3-d]pyrimidine-6-carboxylic acid methoxy-amide]",2.1
4,"CONC(=O)c1cn(-c2ccc(OC(F)(F)F)cc2)c2nc(Nc3ccc(CCN4CCN(C)CC4)cc3)ncc2c1=O [Cpd 175, 2-{4-[2-(4-methylpiperazin-1-yl)-ethyl]-phenylamino}-5-oxo-8-(4-trifluoromethoxy-phenyl)-5,8-dihydropyrido[2,3-d]pyrimidine-6-carboxylic acid methoxy-amide]",1
5,"CONC(=O)c1cn(-c2ccc(OC(F)(F)F)cc2)c2nc(Nc3ccc(C4CCNCC4)cc3)ncc2c1=O [Cpd 176, 5-oxo-2-(4-piperidin-4-yl-phenylamino)-8-(4-trifluoromethoxyphenyl)-5,8-dihydro-pyrido[2,3-d]pyrimidine-6-carboxylic acid methoxy-amide]",0.59
6,"CONC(=O)c1cn(-c2ccc(OC(F)(F)F)cc2)c2nc(Nc3ccc(C4CCN(S(N)(=O)=O)CC4)cc3)ncc2c1=O [Cpd 177, 5-oxo-2-[4-(1-sulfamoyl-piperidin-4-yl)-phenylamino]-8-(4-trifluoromethoxyphenyl)-5,8-dihydropyrido[2,3-d]pyrimidine-6-carboxylic acid methoxy-amide]",6.6
7,"CONC(=O)c1cn(-c2ccc3c(c2)CCC3)c2nc(Nc3ccc(C4CCN(S(N)(=O)=O)CC4)cc3)ncc2c1=O [Cpd 178, 8-indan-5-yl-5-oxo-2-[4-(1-sulfamoyl-piperidin-4-yl)-phenylamino]-5,8-dihydro-pyrido[2,3-d]pyrimidine-6-carboxylic acid methoxy-amide]",2.6
8,"CCc1ccc(-n2cc(C(=O)NOC)c(=O)c3cnc(Nc4ccc(C5CCN(S(N)(=O)=O)CC5)cc4)nc32)cc1 [Cpd 179, 8-(4-ethyl-phenyl)-5-oxo-2-[4-(1-sulfamoyl-piperidin-4-yl)-phenylamino]-5,8-dihydro-pyrido[2,3-d]pyrimidine-6-carboxylic acid methoxy-amide]",1.8
9,"CCONC(=O)c1cn(-c2ccc(CC)cc2)c2nc(Nc3ccc(C4CCN(CC)CC4)cc3)ncc2c1=O [Cpd 181, 8-(4-ethyl-phenyl)-2-[4-(1-ethyl-piperidin-4-yl)-phenylamino]-5-oxo-5,8-dihydro-pyrido[2,3-d]pyrimidine-6-carboxylic acid ethoxy-amide]",0.2
10,"CCc1ccc(-n2cc(C(=O)NOC(C)C)c(=O)c3cnc(Nc4ccc(C5CCN(CC)CC5)cc4)nc32)cc1 [Cpd 182, 8-(4-ethyl-phenyl)-2-[4-(1-ethyl-piperidin-4-yl)-phenylamino]-5-oxo-5,8-dihydro-pyrido[2,3-d]pyrimidine-6-carboxylic acid isopropoxy-amide]",0.7
11,"CCONC(=O)c1cn(-c2ccc(CC)cc2)c2nc(Nc3ccc(C4CCN(CCO)CC4)cc3)ncc2c1=O [Cpd 183, 8-(4-ethyl-phenyl)-2-{4-[1-(2-hydroxy-ethyl)-piperidin-4-yl]-phenylamino}-5-oxo-5,8-dihydro-pyrido[2,3-d]pyrimidine-6-carboxylic acid ethoxy-amide]",0.4
12,"CCc1ccc(-n2cc(C(=O)NOC(C)C)c(=O)c3cnc(Nc4ccc(C5CCN(CCO)CC5)cc4)nc32)cc1 [Cpd 184, 8-(4-ethyl-phenyl)-2-{4-[1-(2-hydroxy-ethyl)-piperidin-4-yl]-phenylamino}-5-oxo-5,8-dihydro-pyrido[2,3-d]pyrimidine-6-carboxylic acid isopropoxy-amide]",0.9
13,"CCc1ccc(-n2cc(C(=O)NOC)c(=O)c3cnc(Nc4ccc(C5CCN(CCCO)CC5)cc4)nc32)cc1 [Cpd 185, 8-(4-ethyl-phenyl)-2-{4-[1-(3-hydroxy-propyl)-piperidin-4-yl]-phenylamino}-5-oxo-5,8-dihydro-pyrido[2,3-d]pyrimidine-6-carboxylic acid methoxy-amide]",0.6
14,"CCONC(=O)c1cn(-c2ccc(CC)cc2)c2nc(Nc3ccc(C4CCN(CCCO)CC4)cc3)ncc2c1=O [Cpd 186, 8-(4-ethyl-phenyl)-2-{4-[1-(3-hydroxy-propyl)-piperidin-4-yl]-phenylamino}-5-oxo-5,8-dihydro-pyrido[2,3-d]pyrimidine-6-carboxylic acid ethoxy-amide]",0.6
15,"CCc1ccc(-n2cc(C(=O)NOC(C)C)c(=O)c3cnc(Nc4ccc(C5CCN(CCCO)CC5)cc4)nc32)cc1 [Cpd 187, 8-(4-ethyl-phenyl)-2-{4-[1-(3-hydroxy-propyl)-piperidin-4-yl]-phenylamino}-5-oxo-5,8-dihydro-pyrido[2,3-d]pyrimidine-6-carboxylic acid isopropoxy-amide]",0.7
16,"CCc1ccc(-n2cc(C(=O)NOC)c(=O)c3cnc(Nc4ccc(C5CCN(CC(F)(F)F)CC5)cc4)nc32)cc1 [Cpd 188, 8-(4-ethyl-phenyl)-5-oxo-2-{4-[1-(2,2,2-trifluoro-ethyl)-piperidin-4-yl]-phenylamino}-5,8-dihydro-pyrido[2,3-d]pyrimidine-6-carboxylic acid methoxy-amide]",4.1
17,"CCONC(=O)c1cn(-c2ccc(CC)cc2)c2nc(Nc3ccc(C4CCN(CC(F)(F)F)CC4)cc3)ncc2c1=O [Cpd 189, 8-(4-ethyl-phenyl)-5-oxo-2-{4-[1-(2,2,2-trifluoro-ethyl)-piperidin-4-yl]-phenylamino}-5,8-dihydro-pyrido[2,3-d]pyrimidine-6-carboxylic acid ethoxy-amide]",9.7
18,"CONC(=O)c1cn(-c2ccc3c(c2)CCC3)c2nc(Nc3ccc(CCc4ncn[nH]4)cc3)ncc2c1=O [Cpd 190, 8-indan-5-yl-5-oxo-2-{4-[2-(1H-[1,2,4]triazol-3-yl)-ethyl]-phenylamino}-5,8-dihydro-pyrido[2,3-d]pyrimidine-6-carboxylic acid methoxy-amide]",4.2
19,"CONC(=O)c1cn(-c2ccc(OC(F)(F)F)cc2)c2nc(Nc3ccc(CCc4n[nH]c(C)n4)cc3)ncc2c1=O [Cpd 191, 2-{4-[2-(5-methyl-1H-[1,2,4]triazol-3-yl)-ethyl]-phenylamino}-5-oxo-8-(4-trifluoromethoxyphenyl)-5,8-dihydropyrido[2,3-d]pyrimidine-6-carboxylic acid methoxy-amide]",5.6
20,"CONC(=O)c1cn(-c2ccc3c(c2)CCC3)c2nc(Nc3cccc(C(=O)NCCN4CCCC4)c3)ncc2c1=O [Cpd 192, 8-indan-5-yl-5-oxo-2-[3-(2-pyrrolidin-1-yl-ethylcarbamoyl)-phenylamino]-5,8-dihydro-pyrido[2,3-d]pyrimidine-6-carboxylic acid methoxy-amide]",6.3
